According to US10202377B2, “3-(1H-benzo[D]imidazol-2-yl)-1H-pyrazolo[3,4-C]pyridine and therapeutic uses thereof” (Samumed, LLC, priority 2014, dated 2019):

Assays:
[1] = system: primary human mesenchymal stem cells (hMSCs); assay: Chondrogenesis induction in primary human mesenchymal stem cells (nodule imaging, Rhodamine B/Nile Red); assay type: cell-based; conditions: 6 days, dose at which the compound reached maximum chondrogenesis activity, dose range 10-2700 nM
Protocol: The above synthesized compounds were screened using primary human mesenchymal stem cells (hMSCs) to determine their ability to induce chondrogenesis (process by which cartilage is developed).
Human Mesenchymal Stem Cell Culture: Primary human mesenchymal stem cells (hMSCs) were purchased from Lonza (Walkersville, Md.) and expanded in Mesenchymal Stem Cell Growth Media (Lonza). Cells between passage 3 and 6 were used for the experiments.
Compound Screening: Each compound was dissolved in DMSO as a 10 mM stock and used to prepare compound source plates. Serial dilution (1:3, 6-point dose-response curves from 2700 nM to 10 nM) and compound transfer was performed using the ECHO 550 (Labcyte, Sunnyvale, Calif.) into 96-well clear bottom assay plates (Greiner Bio-One) with appropriate DMSO backfill for a final DMSO concentration of 0.03%. hMSCs were plated at 20,000 cells/well in 250 μL/well Incomplete Chondrogenic Induction Medium (Lonza; DMEM, dexamethasone, ascorbate, insulin-transferrin-selenium [ITS supplement], gentamycin-amphotericin [GA-1000], sodium pyruvate, proline and L-glutamine). TGF-β3 (10 ng/mL) was used as a positive control for differentiation while negative control wells were treated with 75 nL DMSO for normalization and calculating EC50 values. Cells were incubated at 37° C. and 5% CO2 for 6 days. To image chondrogenic nodules, the cells were fixed using 4% formaldehyde (Electron Microscopy Sciences), and stained with 2 μg/mL Rhodamine B (Sigma-Aldrich) and 20 μM Nile Red (Sigma-Aldrich) [Johnson K., et. al, A Stem Cell-Based Approach to Cartilage Repair, Science, (2012), 336(6082), 717-721]. The nodules imaged (4 images per well at 4× magnification) by excitation at 531 nm and emission at 625 nm and quantified using the CellInsight CX5 (Thermo Scientific). Number of nodules in each well was normalized to the average of 3 DMSO treated wells on the same plate using Excel (Microsoft Inc.). The normalized averages (fold change over DMSO) of 3 replicate wells for each compound concentration were calculated. Due to solubility limitations of some of the compounds, curve fitting was incomplete leading to inaccurate EC50 determinations.
Using TGF-β3 as a positive control, the concentration of test compounds required to induce equivalent levels of chondrogenesis is reported. In addition, the maximum activity of each compound and the respective dose that each compound reached maximum chondrogenesis activity is reported.

[2] = system: primary human fibroblasts derived from IPF patients (LL29 cells); assay: Inhibition of fibrosis (αSMA staining) in TGF-β1-treated primary human fibroblasts from IPF patients; assay type: cell-based; conditions: Fibroblast, 96 h, TGF-β1 20 ng/mL, 4 days
Method in brief: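 LL29 IPF fibroblasts in F12 with 1% FBS were stimulated with TGF-β1 (20 ng/mL) and incubated 4 days at 37 °C. SYTOX-positive dead cells were excluded, and αSMA-positive cells were counted by immunostaining as % of total. Values were normalized to TGF-β1/DMSO wells on the same plate, and EC50 derived.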

[3] = system: Wnt activity (Sp5-Luc reporter, SW480 colon carcinoma cells); assay: Sp5-Luc Wnt reporter gene screening assay in SW480 colon carcinoma cells; conditions: Homo sapiens

Row | Compound | Conc (nM) of Max. activity [1] | EC50 [2] | IC50 [3]
1 | O=C(Nc1cncc(-c2cc3c(-c4nc5c(-c6cccs6)cccc5[nH]4)n[nH]c3cn2)c1)C1CC1 [Compound 331, N-(5-(3-(4-(Thiophen-2-yl)-1H-benzo[d]imidazol-2-yl)-1H-pyrazolo[3,4-c]pyridin-5-yl)pyridin-3-yl)cyclopropanecarboxamide] | 300 nM | 29 nM | 17.2 nM
2 | Cc1ccc(-c2cccc3[nH]c(-c4n[nH]c5cnc(-c6cncc(N)c6)cc45)nc23)s1 [Compound 367, 5-(3-(4-(5-Methylthiophen-2-yl)-1H-benzo[d]imidazol-2-yl)-1H-pyrazolo[3,4-c]pyridin-5-yl)pyridin-3-amine] | 30 nM | 9 nM | 3.5 nM
3 | CC(=O)c1ccc(-c2cccc3[nH]c(-c4n[nH]c5cnc(-c6cncc(NC(=O)CC(C)C)c6)cc45)nc23)s1 [Compound 392, N-(5-(3-(4-(5-Acetylthiophen-2-yl)-1H-benzo[d]imidazol-2-yl)-1H-pyrazolo[3,4-c]pyridin-5-yl)pyridin-3-yl)-3-methylbutanamide] | 2700 nM | 267 nM | 32.1 nM
4 | Cc1ccncc1-c1cc2c(-c3nc4c(-c5cc(F)cc(CNS(C)(=O)=O)c5)cccc4[nH]3)n[nH]c2cn1 [Compound 421, N-(3-Fluoro-5-(2-(5-(4-methylpyridin-3-yl)-1H-pyrazolo[3,4-c]pyridin-3-yl)-1H-benzo[d]imidazol-4-yl)benzyl)methanesulfonamide] | 100 nM | 9 nM | 10 nM
5 | CC(C)Nc1cncc(-c2cc3c(-c4nc5c(-c6cc(F)cc(NCCN(C)C)c6)cccc5[nH]4)n[nH]c3cn2)c1 [Compound 454, N^1-(3-Fluoro-5-(2-(5-(5-(isopropylamino)pyridin-3-yl)-1H-pyrazolo[3,4-c]pyridin-3-yl)-1H-benzo[d]imidazol-4-yl)phenyl)-N^2,N^2-dimethylethane-1,2-diamine] | 300 nM | 117 nM | 51.6 nM
6 | Fc1cccc(-c2cccc3[nH]c(-c4n[nH]c5cnc(-c6cn[nH]c6)cc45)nc23)c1 [Compound 939, 3-(4-(3-Fluorophenyl)-1H-benzo[d]imidazol-2-yl)-5-(1H-pyrazol-4-yl)-1H-pyrazolo[3,4-c]pyridine] | 30 nM | 9 nM | 25 nM
